Patent US8232101B2, “Identification of antigenic peptides from multiple myeloma cells” (Janssen Pharmaceutica N.V., priority 2009, dated 2012)

Tests used:
[1] = tested on: T2 cells loaded with individual peptides; assay: 51Cr Release Assay for activity of CTL generated with peptide-loaded Drosophila aAPC; type: cell-based, human; details: for Induction of CTL in two normal donors: Donor 1 and Donor 2, FIG. 3 and FIG. 4; for CTL Activities Strong: number of donors that elicited Strong activity over total number of donors; for CTL Activities Strong / CTL Activities Weak / CTL Activities None: T2 targets loaded with individual peptide; for CTL Activities Weak: number of donors that elicited Weak activity over total number of donors; for CTL Activities None: number of donors that elicited no activity over total number of donors
Protocol: Drosophila aAPC were generated from Schneider S2 cells (S2 cells), which were originally established in 1969 from several hundred Oregon-R (wild type) Drosophila melanogaster (Oregon-R) embryos (American Type Culture Collection (ATCC) CRL-1963) according to published procedures (Schneider, J. Embryol. Exp. Morph. 1972 Vol 27, pp. 353-365), and deposited in the ATCC(CRL10974). S2 cells are grown in commercial Schneider's Drosophila medium supplemented with 10% heat-inactivated fetal bovine serum. In order to generate aAPCs, human complementary DNAs (cDNAs) for HLA-A2.1, B7.1, LFA-3, ICAM-1 and CD70, were individually inserted into the pRmHa-3 vector and S2 cells were transfected using the calcium phosphate precipitation method with a mixture of HLA-A2.1, B7.1, LFA-3, ICAM-1 and CD70 plasmid DNAs (for aAPC clone 1120) and the phshneo plasmid. (see U.S. Pat. No. 6,225,042 regarding construction and use of pRMHa plasmid vectors). The human cDNAs were prepared using standard techniques by reverse transcription-PCR using primers derived from the published sequences for HLA-A2.1 from K562 cells, B7.1 from K562 cells, LFA-3 from HL60 cells, ICAM-1 from K562 cells, and CD70 from HLA-A2.1+LCL cells. K562 cells are a human erythroleukemic cell line, HL60 cells are a promyelocytic leukemia human cell line, and HLA-A2.1+LCL cells are an Epstein-Barr virus (EBV)-transformed lymphoblastoid cell line (LCL). Stably transfected cells were selected by culturing in Schneider's medium containing geneticin. Prior to scale up of the cells, expression of the transfected genes is induced by the addition of CuSO4. The level of expression is assessed by flow cytometry using anti-HLA-A2.1, anti-B7.1, anti-LFA-3, anti-ICAM-1 and CD70 antibodies. For efficient in vitro activation of the CD8+ lymphocytes, greater than 30% of the Drosophila cells must express the HLA-A2.1 molecule. The Drosophila cells regularly express each of the molecules at levels between 70-90%. Drosophila aAPC were washed and then incubated at RT for 4 hours with 10 μM of different combinations of mixed peptides or individual peptides (See e.g. U.S. Pat. Nos. 6,225,042, 6,355,479, 6,362,001 and 6,790,662; U.S. Patent Application Publication Nos. 2009/0017000 and 2009/0004142; and International Publication No. WO2007/103009). Purified human CD8+ T cells from HLA-A2 positive donors were then incubated with peptide-loaded Drosophila APC at 37° C., 5% CO2, for 5 days. Human IL-2 (20 U/ml, R&D Systems) and IL-7 (30 U/ml, R&D Systems) were added at day 5 and the activated CD8+ T cells (CTL) were re-stimulated twice, at day 7 and day 15, with non-CD8 adherent cells in a total peripheral blood mononuclear cell (PBMC) preparation from the same donor in the presence of peptides.
A number of different CTL were generated using CD8+ T cells from different donors and different combinations of mixed peptides, including combinations that contained only one peptide. For example, 24 selected peptides were mixed or used individually to create different combinations of peptide mixtures (PM) or individual peptides (P5 and P14) and produce peptide-loaded Drosophila APC. The resulting peptide-loaded Drosophila APC were incubated with CD8+ T cells from 2 different donors (Donor 1 and Donor 2) to produce 11 different batches of CTL (Donor 1: PM1, PM2, PM3, PM4, and P14; Donor 2: PM1, PM2, PM3, PM4, P5, and P14) (Table 3).
CTL (Effector) activity was measured with a standard chromium (^51Cr) release assay, with T2 cells (Target) loaded with individual peptides and also with a number of tumor cell lines as target cells (Brunner et al., Immunology. 1968 February; 14(2):181-96). The highest Effector (E) Target (T) ratio (E/T) was 50:1, with 1:5 serial dilutions of CTL (Effector) used to produce a dose response. Before the assay, Target cells (T2 cells at 3×10^6 cells/100 ul in 1×PBS with 4% FCS) were labeled by adding 100 ul of ^51Cr (Perkin Elmer) and incubating at 37° C. for 1 hour. […]

[2] = target: T1, HLA-A2 molecules in T2 cells (Homo sapiens, UniProt P04439, D140Y/D185E/D98H/E176V/E277Q/G131W/G231S/I119V/I121R/I166T/I218V/L300P/L318F/N151K/N90K/P208A/P217A/Q86G/Q94H/R138H/R169H/T345S); assay: HLA-A2 Stabilization Assay (peptide binding, T2 cells, flow cytometry); parameters: key: Strong (S); Median (M); Weak (W); None (N)
T1 construct: HLA-A2 molecules that are synthesized in a transporter associated with antigen processing (TAP)-deficient cell line, T2; host or cells: T2 cells (TAP-deficient human cell line)
Description: The assay for peptide binding to class I major histocompatibility complex (MHC/HLA-A2) molecules is based on the ability of peptides to stabilize MHC class I, HLA-A2 molecules that are synthesized in a transporter associated with antigen processing (TAP)-deficient cell line, T2 (ATCC® Number: CRL-1992). The extent of stabilization of MHC class I molecules is directly related to the binding affinity of the added peptides (Townsend et al., Cell. 1990 Jul. 27; 62(2):285-95; Andersen et al., Tissue Antigens. 1999 August; 54(2):185-90).
For the assay, T2 cells were plated in 96-well V-bottom plates, 100 ul/well RPMI media, at a density of 1×10^6 cells/ml, with final peptide concentrations of 200 uM, 20 uM, 2 uM, 200 nM, 20 nM, 2 nM, and no peptide as negative control. The cells with peptides were incubated for 18 hours at 26° C., 5% CO2. After 18 hours, the plates were transferred to 37° C., 5% CO2 and incubated for an additional 3 hours. The cells in plate were washed once with FACS buffer (PBS, 2.5% FCS, 1% NaN3) and then stained by adding 1 ul/well FITC-labeled mouse anti-human HLA-A2 antibody (BD Pharmingen, Cat. No. 551285), 1 ul/well PI, and then incubating at 4° C. for 30 minutes. After staining, cells were resuspended in 200 ul of FACS buffer and transferred from 96-well plates to racks of 96 microtubes. Samples were run on a FACScan flow cytometer and the data were analysed by using CellQuest software.
A peptide of Hepatitis B Core protein (HBC) was used as a positive control. The Hepatitis B Core peptide is a potent HLA-A2.1 epitope and consists of residue numbers 18-27 of the core sequence, amino acids […] (SEQ ID NO:73) (Zhang et al. Immunology. 2007, 121(1):105-12).

[3] = truncated versions of P3, P13, P14

Substance: ALNEEAGRLLL (listed as Homo sapiens) [Peptide P15]
- Induction of CTL in two normal donors [1]: induced CTL
- CTL Activities Strong [1]: 3/9
- CTL Activities Weak [1]: 5/9
- CTL Activities None [1]: 1/9

Substance: DLPGITR (listed as Homo sapiens) [Peptide P14-17]
- HLA-A2 Binding [2, 3]: N

Substance: DLPGITRV (listed as Homo sapiens) [Peptide P14-3]
- HLA-A2 Binding [2, 3]: N

Substance: DLPGMTK (listed as Homo sapiens) [Peptide P13-15]
- HLA-A2 Binding [2, 3]: N

Substance: DLPGMTKV (listed as Homo sapiens) [Peptide P13-3]
- HLA-A2 Binding [2, 3]: N

Substance: FLASESLLKGAL (listed as Homo sapiens) [Peptide P23]
- Induction of CTL in two normal donors [1]: induced CTL
- CTL Activities Strong [1]: 1/2
- CTL Activities None [1]: 1/2

Substance: FLLPHPGLQV (listed as Homo sapiens) [Peptide P10]
- Induction of CTL in two normal donors [1]: induced CTL
- CTL Activities Strong [1]: 1/2
- CTL Activities None [1]: 1/2

Substance: FMLQTYGQQL (listed as Homo sapiens) [Peptide P14-18]
- HLA-A2 Binding ([2]; computer predicted peptides): N

Substance: HSLDNSLSILR (listed as Homo sapiens) [Peptide P16]
- CTL Activities None [1]: 2/2

Substance: IDLPGITRV (listed as Homo sapiens) [Peptide P14-2]
- HLA-A2 Binding [2, 3]: N

Substance: KLLEPVLLL (listed as Homo sapiens) [Peptide P6]
- CTL Activities Weak [1]: 1/3
- CTL Activities None [1]: 2/3

Substance: KNPVLLKIL (listed as Homo sapiens) [Peptide P7]
- CTL Activities Weak [1]: 1/3
- CTL Activities None [1]: 2/3

Substance: LIDLPGIT (listed as Homo sapiens) [Peptide P14-13]
- HLA-A2 Binding [2, 3]: N

Substance: LIDLPGITR (listed as Homo sapiens) [Peptide P14-12]
- HLA-A2 Binding [2, 3]: N

Substance: LIDLPGITRV (listed as Homo sapiens) [Peptide P14-1]
- HLA-A2 Binding [2, 3]: N

Substance: LLGPRLVLA (listed as Homo sapiens) [Peptide P1]
- Induction of CTL in two normal donors [1]: induced CTL
- CTL Activities Strong [1]: 2/10
- CTL Activities Weak [1]: 2/10
- CTL Activities None [1]: 6/10

Substance: LLIDDKGTIKL (listed as Homo sapiens) [Peptide P20]
- CTL Activities Weak [1]: 1/3
- CTL Activities None [1]: 2/3

Substance: LLLDVAYGAVQA (listed as Homo sapiens) [Peptide P22]
- CTL Activities Strong [1]: 1/2
- CTL Activities None [1]: 1/2

Substance: LLLDVPTAAVQA (listed as Homo sapiens) [Peptide P21]
- CTL Activities Strong [1]: 1/3
- CTL Activities None [1]: 2/3

Substance: LLNMPPAHLK (listed as Homo sapiens) [Peptide P11]
- CTL Activities Strong [1]: 1/2
- CTL Activities Weak [1]: 1/2

Substance: LLYQGPHNTL (listed as Homo sapiens) [Peptide P12]
- CTL Activities Weak [1]: 1/3
- CTL Activities None [1]: 2/3

Substance: LNLLEL (listed as Homo sapiens) [Peptide P3-3]
- HLA-A2 Binding [2, 3]: N

Substance: LPGITRV (listed as Homo sapiens) [Peptide P14-4]
- HLA-A2 Binding [2, 3]: N

Substance: LPGMTKV (listed as Homo sapiens) [Peptide P13-4]
- HLA-A2 Binding [2, 3]: N

Substance: LSLDSSLSSLL (listed as Homo sapiens) [Peptide P17]
- Induction of CTL in two normal donors [1]: induced CTL
- CTL Activities Strong [1]: 4/10
- CTL Activities Weak [1]: 4/10
- CTL Activities None [1]: 2/10

Substance: LVDLPGMT (listed as Homo sapiens) [Peptide P13-11]
- HLA-A2 Binding [2, 3]: N

Substance: LVDLPGMTKV (listed as Homo sapiens) [Peptide P13-1]
- HLA-A2 Binding [2, 3]: N

Substance: LVLNLLEL (listed as Homo sapiens) [Peptide P3-1]
- HLA-A2 Binding [2, 3]: N

Substance: NLLPKLHVV (listed as Homo sapiens) [Peptide P9]
- CTL Activities None [1]: 2/2

Substance: PGITRV (listed as Homo sapiens) [Peptide P14-5]
- HLA-A2 Binding [2, 3]: N

Substance: PGMTKV (listed as Homo sapiens) [Peptide P13-5]
- HLA-A2 Binding [2, 3]: N

Substance: RSLFLLYAL (listed as Homo sapiens) [Peptide P4]
- CTL Activities Weak [1]: 1/1

Substance: SLVLNL (listed as Homo sapiens) [Peptide P3-6]
- HLA-A2 Binding [2, 3]: N

Substance: SLVLNLL (listed as Homo sapiens) [Peptide P3-5]
- HLA-A2 Binding [2, 3]: N

Substance: VLIPKLPQL (listed as Homo sapiens) [Peptide P5]
- Induction of CTL in two normal donors [1]: induced CTL
- CTL Activities Weak [1]: 1/3
- CTL Activities None [1]: 2/3

Substance: YLLPAIVHI (listed as Homo sapiens) [Peptide P8]
- CTL Activities None [1]: 3/3
